In general, Ki refers to the dissociation constant of the complex between target and ligand, obtained from inhibition or displacement. Low readings indicate a stronger hold on the target, high ones a looser hold on the target.

The record followed here is ChEMBL document CHEMBL1130257, “(Aryloxy)alkylamines as selective human dopamine D4 receptor antagonists: potential antipsychotic agents” (J Med Chem, 1997).

In one assay the target is T1, D(4) dopamine receptor (Homo sapiens, UniProt P21917).
T1 sequence (P21917 whole entry): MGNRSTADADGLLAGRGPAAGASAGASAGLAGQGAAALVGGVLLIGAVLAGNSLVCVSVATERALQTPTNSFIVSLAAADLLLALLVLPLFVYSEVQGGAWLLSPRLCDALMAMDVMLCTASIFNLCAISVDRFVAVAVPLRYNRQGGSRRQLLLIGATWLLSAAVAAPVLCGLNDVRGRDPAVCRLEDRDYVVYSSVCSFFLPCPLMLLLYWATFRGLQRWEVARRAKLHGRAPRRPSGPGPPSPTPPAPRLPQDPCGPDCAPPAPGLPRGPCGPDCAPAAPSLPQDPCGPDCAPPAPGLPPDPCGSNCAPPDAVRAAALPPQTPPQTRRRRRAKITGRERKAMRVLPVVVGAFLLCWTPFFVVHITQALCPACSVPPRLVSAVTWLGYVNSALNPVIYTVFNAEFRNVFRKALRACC
Description: biochemical.

In another assay the target is D(3) dopamine receptor (Homo sapiens, UniProt P35462). In words: biochemical.
Sequence of D(3) dopamine receptor (P35462 whole entry): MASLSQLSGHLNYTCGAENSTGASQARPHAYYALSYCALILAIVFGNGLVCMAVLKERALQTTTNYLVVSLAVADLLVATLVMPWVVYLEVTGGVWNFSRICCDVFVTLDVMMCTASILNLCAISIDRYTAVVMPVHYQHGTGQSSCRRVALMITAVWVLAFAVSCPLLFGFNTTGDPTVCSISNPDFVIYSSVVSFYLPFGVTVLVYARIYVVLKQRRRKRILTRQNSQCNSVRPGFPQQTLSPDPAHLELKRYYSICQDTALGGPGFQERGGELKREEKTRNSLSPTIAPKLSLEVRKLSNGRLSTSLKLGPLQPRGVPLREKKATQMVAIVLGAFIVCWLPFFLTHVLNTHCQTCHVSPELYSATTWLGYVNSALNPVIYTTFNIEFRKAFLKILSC

Description for D(3) dopamine receptor: Binding affinity against cloned human dopamine receptor D3 expressed in Chinese hamster ovary (CHO) K-1 cells by displacement of [3H]spiperone.
Description for D(4) dopamine receptor: Binding affinity to recombinant human dopamine receptor D4 expressed in CHO cells by displacement of [3H]spiperone

Consider `Clc1ccc(OCCNCCCOc2ccc(Br)cc2)cc1`, for which the Ki at D(4) dopamine receptor is 38 nM. As to `Cc1cccc(OCCNCCCOc2ccccc2)c1`, at D(4) dopamine receptor, the Ki is 0.46 nM.

With `COc1ccc(OCCNCCCOc2ccccc2)cc1`, the Ki came to 5.4 nM at D(4) dopamine receptor and 369 nM at D(3) dopamine receptor. As to `Cc1ccc(SCCNCCCOc2ccccc2)cc1`, the Ki at D(4) dopamine receptor was found to be 30 nM. `Cc1ccccc1OCCNCCCOc1ccccc1` displayed a Ki on D(4) dopamine receptor of 74 nM. Turning to `c1ccc(OCCCNCCOc2ccccc2)cc1`, the Ki at D(4) dopamine receptor came to 2 nM; on D(3) dopamine receptor, 136 nM. The like results for `Cc1ccc(OCCNCCCOc2ccccc2)cc1` were, in that order, 0.52 nM and 169 nM. For the compound `Clc1cccc(OCCNCCCOc2ccccc2)c1`, on D(4) dopamine receptor, the affinity, expressed as Ki, was 0.31 nM. For `Fc1ccc(OCCCNCCOc2ccc(Cl)cc2)cc1`, the Ki at D(4) dopamine receptor was 0.84 nM; on D(3) dopamine receptor, 98 nM. The like results for `Cc1ccc(OCCNCCCOc2ccccc2)cc1C` were, in that order, 0.35 nM and 73 nM.

As to `c1ccc(CCCNCCCOc2ccccc2)cc1`, the values for the Ki at D(4) dopamine receptor and at D(3) dopamine receptor were 3.3 nM and 17 nM, respectively.

On D(4) dopamine receptor, `Clc1ccc(SCCNCCCOc2ccccc2)cc1` displayed a Ki of 33 nM. For the compound `Cc1ccc(OCCCNCCOc2ccc(C)cc2)cc1`, the Ki was found to be 11 nM at D(4) dopamine receptor and 235 nM on D(3) dopamine receptor. The matching figures for `Cc1ccc(OCCNCCCSc2ccccc2)cc1`: 0.8 nM and 56 nM. Regarding `O=C(O)c1ccc(OCCNCCCOc2ccccc2)cc1`, the Ki on D(4) dopamine receptor was > 1000 nM.

On D(4) dopamine receptor, `Cc1ccc(OCCCNCCOc2ccccc2)cc1` showed a Ki of 2.7 nM. Take `Cc1ccc(OCCNCCCOc2ccc(F)cc2)cc1`: the Ki worked out at 0.96 nM at D(4) dopamine receptor and 232 nM at D(3) dopamine receptor. As to `Clc1ccccc1OCCNCCCOc1ccccc1`, the Ki on D(4) dopamine receptor turned out to be 4.4 nM; on D(3) dopamine receptor, 17 nM. Consider `Cc1ccc(OCCCNCCOc2ccc(Cl)cc2)cc1`, for which the values for the Ki at D(4) dopamine receptor and on D(3) dopamine receptor were 5.6 nM and 177 nM, respectively.

Consider `Cc1ccc(OCCNCCCOc2ccccc2)cc1Cl`, for which the Ki at D(4) dopamine receptor was determined as 0.52 nM; on D(3) dopamine receptor, 3.9 nM.

Turning to `O=[N+]([O-])c1ccc(OCCNCCCOc2ccccc2)cc1`, the Ki on D(4) dopamine receptor was 4.4 nM; at D(3) dopamine receptor, 345 nM. Take `Oc1ccc(OCCNCCCOc2ccccc2)cc1`: the Ki on D(4) dopamine receptor was found to be 3.1 nM; on D(3) dopamine receptor, 236 nM. With `Cc1ccc(OCCNCCCOc2ccccc2C)cc1`, the Ki on D(4) dopamine receptor worked out at 1.1 nM; at D(3) dopamine receptor it was 381 nM. On D(4) dopamine receptor, `Cc1ccc(CCCNCCCOc2ccccc2)cc1` showed a Ki of 4.7 nM. Turning to `Clc1ccc(OCCNCCCSc2ccccc2)cc1`, the Ki was found to be 1.4 nM at D(4) dopamine receptor and 95 nM on D(3) dopamine receptor. The like results for `Cc1ccc(OCCNCCCOc2ccc(Br)cc2)cc1` were, in that order, 27 nM and 1700 nM. Regarding `Cc1ccc(OCCNCCCOc2cccc(C)c2)cc1`, the Ki was 1.2 nM at D(4) dopamine receptor and 192 nM at D(3) dopamine receptor.
